According to article PMC4365076, “The phage growth limitation system in Streptomyces coelicolor A(3)2 is a toxin/antitoxin system, comprising enzymes with DNA methyltransferase, protein kinase and ATPase activity” (Virology, 2015):

What was measured:
[1] = biological target: T1, PglX (PglX–His6) (Streptomyces coelicolor, UniProt Q8CJM2); assay: 3H-methyl incorporation into DNA, scintillation counting; type: biochemical; conditions: 12 μM labelled compound, phage ϕC31 DNA co-substrate, 1 mM EDTA, pH 7.5, 30 °C; partially purified enzyme
T1 construct: NPPY motif at 378–381
T1 sequence (Q8CJM2 1-1210): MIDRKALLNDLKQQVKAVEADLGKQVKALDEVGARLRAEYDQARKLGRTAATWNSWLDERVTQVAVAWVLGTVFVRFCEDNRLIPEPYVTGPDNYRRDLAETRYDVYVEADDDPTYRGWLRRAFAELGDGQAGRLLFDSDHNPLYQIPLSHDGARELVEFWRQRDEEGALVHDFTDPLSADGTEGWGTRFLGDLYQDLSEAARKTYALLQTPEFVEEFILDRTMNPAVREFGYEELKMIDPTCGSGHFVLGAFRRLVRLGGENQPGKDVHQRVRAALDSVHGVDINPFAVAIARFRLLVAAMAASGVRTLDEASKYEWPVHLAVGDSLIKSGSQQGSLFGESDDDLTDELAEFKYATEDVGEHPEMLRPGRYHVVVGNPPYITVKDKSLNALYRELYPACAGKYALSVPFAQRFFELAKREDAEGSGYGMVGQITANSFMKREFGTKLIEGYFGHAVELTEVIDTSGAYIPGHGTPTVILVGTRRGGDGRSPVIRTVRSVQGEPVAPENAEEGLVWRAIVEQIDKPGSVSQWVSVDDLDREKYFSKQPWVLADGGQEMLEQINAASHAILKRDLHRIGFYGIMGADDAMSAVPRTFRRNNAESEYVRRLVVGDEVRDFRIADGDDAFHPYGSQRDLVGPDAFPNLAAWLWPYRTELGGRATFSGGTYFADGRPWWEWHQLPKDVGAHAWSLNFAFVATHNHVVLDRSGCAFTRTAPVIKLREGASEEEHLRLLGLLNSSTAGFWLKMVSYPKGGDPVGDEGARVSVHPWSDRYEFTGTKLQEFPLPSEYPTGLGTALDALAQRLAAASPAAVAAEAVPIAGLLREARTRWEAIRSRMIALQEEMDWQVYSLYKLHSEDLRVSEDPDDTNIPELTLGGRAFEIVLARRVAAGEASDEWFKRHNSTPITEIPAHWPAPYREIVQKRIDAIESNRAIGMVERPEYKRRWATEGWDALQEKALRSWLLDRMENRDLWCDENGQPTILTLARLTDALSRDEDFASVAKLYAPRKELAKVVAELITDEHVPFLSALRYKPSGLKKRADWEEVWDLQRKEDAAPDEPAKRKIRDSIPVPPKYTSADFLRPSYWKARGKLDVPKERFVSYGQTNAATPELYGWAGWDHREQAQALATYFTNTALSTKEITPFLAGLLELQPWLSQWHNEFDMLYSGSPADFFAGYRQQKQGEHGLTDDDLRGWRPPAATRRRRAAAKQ

[2] = biological target: T2, PglY (His6–PglY) (Streptomyces coelicolor, UniProt O86682); assay: inhibition of ATP hydrolysis, Pi release, malachite green; type: biochemical; conditions: 1–3 mM ADP-NP against 1–3 mM ATP; 30 °C, pH 8.0, 10 mM MgCl2
T2 construct: ~160 kDa band, MALDI-TOF identified; Walker A GSFGSGKS at 75–82
T2 sequence (O86682 1-1294): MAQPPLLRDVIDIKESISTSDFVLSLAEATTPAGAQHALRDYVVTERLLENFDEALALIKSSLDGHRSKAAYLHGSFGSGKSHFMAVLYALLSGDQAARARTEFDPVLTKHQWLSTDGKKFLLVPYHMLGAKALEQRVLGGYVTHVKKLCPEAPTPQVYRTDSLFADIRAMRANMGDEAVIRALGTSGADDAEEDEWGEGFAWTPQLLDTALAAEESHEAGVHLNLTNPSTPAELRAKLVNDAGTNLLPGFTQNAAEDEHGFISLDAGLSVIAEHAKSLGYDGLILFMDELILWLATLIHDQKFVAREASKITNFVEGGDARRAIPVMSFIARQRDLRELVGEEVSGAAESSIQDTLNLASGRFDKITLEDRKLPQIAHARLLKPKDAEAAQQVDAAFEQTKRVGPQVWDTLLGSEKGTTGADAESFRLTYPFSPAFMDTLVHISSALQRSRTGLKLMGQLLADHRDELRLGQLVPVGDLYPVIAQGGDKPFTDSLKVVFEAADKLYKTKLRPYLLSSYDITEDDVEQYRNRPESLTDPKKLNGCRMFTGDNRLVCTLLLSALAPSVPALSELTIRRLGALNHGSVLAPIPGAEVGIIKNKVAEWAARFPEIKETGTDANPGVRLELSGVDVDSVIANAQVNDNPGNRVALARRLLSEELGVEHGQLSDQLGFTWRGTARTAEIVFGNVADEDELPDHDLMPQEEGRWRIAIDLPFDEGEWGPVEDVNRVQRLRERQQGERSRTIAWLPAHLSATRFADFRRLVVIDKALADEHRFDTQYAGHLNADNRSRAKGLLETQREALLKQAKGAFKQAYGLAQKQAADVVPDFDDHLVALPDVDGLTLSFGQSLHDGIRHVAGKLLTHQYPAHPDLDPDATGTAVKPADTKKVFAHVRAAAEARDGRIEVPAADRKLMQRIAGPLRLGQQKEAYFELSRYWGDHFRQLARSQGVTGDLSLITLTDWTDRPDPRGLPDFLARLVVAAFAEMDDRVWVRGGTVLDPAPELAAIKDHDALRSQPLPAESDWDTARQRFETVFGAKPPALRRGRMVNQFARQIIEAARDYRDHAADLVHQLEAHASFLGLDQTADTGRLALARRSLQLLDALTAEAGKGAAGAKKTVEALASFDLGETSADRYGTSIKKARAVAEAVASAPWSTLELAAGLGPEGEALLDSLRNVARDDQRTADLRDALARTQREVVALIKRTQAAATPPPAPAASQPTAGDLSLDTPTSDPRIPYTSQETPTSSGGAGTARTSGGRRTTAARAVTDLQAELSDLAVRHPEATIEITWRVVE

[3] = substrate: Nc1ncnc2c1ncn2[C@@H]1O[C@H](COP(=O)(O)OP(=O)(O)OP(=O)(O)O)[C@@H](O)[C@H]1O; assay: Pi release, malachite green; type: biochemical, Streptomyces coelicolor; conditions: 30 °C, 40 mM HEPES pH 8.0, 10 mM MgCl2, 10 mM DTT, 0.1 mg/ml BSA

## C[S+](CC[C@H](N)C(=O)O)C[C@H]1O[C@@H](n2cnc3c(N)ncnc32)[C@H](O)[C@@H]1O (stereo partly shown) [AdoMet]
[1]
  3H-methyl incorporation into DNA, scintillation counting: incorporation of label into TCA precipitable material was dependent on DNA addition

## Nc1ncnc2c1ncn2[C@@H]1O[C@H](COP(=O)(O)OP(=O)(O)NP(=O)(O)O)[C@@H](O)[C@H]1O [ADP-NP]
[2]
  inhibition of ATP hydrolysis, Pi release, malachite green: severely inhibited rate of hydrolysis of ATP, indicative of ADP-NP binding and inhibition of activity

B1: PglY (His6–PglY) (Streptomyces coelicolor A3(2)) (protein)
chain: MAQPPLLRDVIDIKESISTSDFVLSLAEATTPAGAQHALRDYVVTERLLENFDEALALIKSSLDGHRSKAAYLHGSFGSGKSHFMAVLYALLSGDQAARARTEFDPVLTKHQWLSTDGKKFLLVPYHMLGAKALEQRVLGGYVTHVKKLCPEAPTPQVYRTDSLFADIRAMRANMGDEAVIRALGTSGADDAEEDEWGEGFAWTPQLLDTALAAEESHEAGVHLNLTNPSTPAELRAKLVNDAGTNLLPGFTQNAAEDEHGFISLDAGLSVIAEHAKSLGYDGLILFMDELILWLATLIHDQKFVAREASKITNFVEGGDARRAIPVMSFIARQRDLRELVGEEVSGAAESSIQDTLNLASGRFDKITLEDRKLPQIAHARLLKPKDAEAAQQVDAAFEQTKRVGPQVWDTLLGSEKGTTGADAESFRLTYPFSPAFMDTLVHISSALQRSRTGLKLMGQLLADHRDELRLGQLVPVGDLYPVIAQGGDKPFTDSLKVVFEAADKLYKTKLRPYLLSSYDITEDDVEQYRNRPESLTDPKKLNGCRMFTGDNRLVCTLLLSALAPSVPALSELTIRRLGALNHGSVLAPIPGAEVGIIKNKVAEWAARFPEIKETGTDANPGVRLELSGVDVDSVIANAQVNDNPGNRVALARRLLSEELGVEHGQLSDQLGFTWRGTARTAEIVFGNVADEDELPDHDLMPQEEGRWRIAIDLPFDEGEWGPVEDVNRVQRLRERQQGERSRTIAWLPAHLSATRFADFRRLVVIDKALADEHRFDTQYAGHLNADNRSRAKGLLETQREALLKQAKGAFKQAYGLAQKQAADVVPDFDDHLVALPDVDGLTLSFGQSLHDGIRHVAGKLLTHQYPAHPDLDPDATGTAVKPADTKKVFAHVRAAAEARDGRIEVPAADRKLMQRIAGPLRLGQQKEAYFELSRYWGDHFRQLARSQGVTGDLSLITLTDWTDRPDPRGLPDFLARLVVAAFAEMDDRVWVRGGTVLDPAPELAAIKDHDALRSQPLPAESDWDTARQRFETVFGAKPPALRRGRMVNQFARQIIEAARDYRDHAADLVHQLEAHASFLGLDQTADTGRLALARRSLQLLDALTAEAGKGAAGAKKTVEALASFDLGETSADRYGTSIKKARAVAEAVASAPWSTLELAAGLGPEGEALLDSLRNVARDDQRTADLRDALARTQREVVALIKRTQAAATPPPAPAASQPTAGDLSLDTPTSDPRIPYTSQETPTSSGGAGTARTSGGRRTTAARAVTDLQAELSDLAVRHPEATIEITWRVVE
notes: ~160 kDa band, MALDI-TOF identified; Walker A GSFGSGKS at 75–82
[3]
  Km: 0.5 mM

B2: PglY (His6–PglY) (Streptomyces coelicolor A3(2); K81A/S82A) (protein)
chain: MAQPPLLRDVIDIKESISTSDFVLSLAEATTPAGAQHALRDYVVTERLLENFDEALALIKSSLDGHRSKAAYLHGSFGSGAAHFMAVLYALLSGDQAARARTEFDPVLTKHQWLSTDGKKFLLVPYHMLGAKALEQRVLGGYVTHVKKLCPEAPTPQVYRTDSLFADIRAMRANMGDEAVIRALGTSGADDAEEDEWGEGFAWTPQLLDTALAAEESHEAGVHLNLTNPSTPAELRAKLVNDAGTNLLPGFTQNAAEDEHGFISLDAGLSVIAEHAKSLGYDGLILFMDELILWLATLIHDQKFVAREASKITNFVEGGDARRAIPVMSFIARQRDLRELVGEEVSGAAESSIQDTLNLASGRFDKITLEDRKLPQIAHARLLKPKDAEAAQQVDAAFEQTKRVGPQVWDTLLGSEKGTTGADAESFRLTYPFSPAFMDTLVHISSALQRSRTGLKLMGQLLADHRDELRLGQLVPVGDLYPVIAQGGDKPFTDSLKVVFEAADKLYKTKLRPYLLSSYDITEDDVEQYRNRPESLTDPKKLNGCRMFTGDNRLVCTLLLSALAPSVPALSELTIRRLGALNHGSVLAPIPGAEVGIIKNKVAEWAARFPEIKETGTDANPGVRLELSGVDVDSVIANAQVNDNPGNRVALARRLLSEELGVEHGQLSDQLGFTWRGTARTAEIVFGNVADEDELPDHDLMPQEEGRWRIAIDLPFDEGEWGPVEDVNRVQRLRERQQGERSRTIAWLPAHLSATRFADFRRLVVIDKALADEHRFDTQYAGHLNADNRSRAKGLLETQREALLKQAKGAFKQAYGLAQKQAADVVPDFDDHLVALPDVDGLTLSFGQSLHDGIRHVAGKLLTHQYPAHPDLDPDATGTAVKPADTKKVFAHVRAAAEARDGRIEVPAADRKLMQRIAGPLRLGQQKEAYFELSRYWGDHFRQLARSQGVTGDLSLITLTDWTDRPDPRGLPDFLARLVVAAFAEMDDRVWVRGGTVLDPAPELAAIKDHDALRSQPLPAESDWDTARQRFETVFGAKPPALRRGRMVNQFARQIIEAARDYRDHAADLVHQLEAHASFLGLDQTADTGRLALARRSLQLLDALTAEAGKGAAGAKKTVEALASFDLGETSADRYGTSIKKARAVAEAVASAPWSTLELAAGLGPEGEALLDSLRNVARDDQRTADLRDALARTQREVVALIKRTQAAATPPPAPAASQPTAGDLSLDTPTSDPRIPYTSQETPTSSGGAGTARTSGGRRTTAARAVTDLQAELSDLAVRHPEATIEITWRVVE
notes: as for B1
[3]; Walker A double mutant
  Km: 100 mM
